Assay results taken from patent US20140051665A1, “PROSTATE CANCER THERAPY WITH HSP90 INHIBITORY COMPOUNDS” (SYNTA PHARMACEUTICALS CORP., priority 2011, published 2014).
Read-outs that look alike come from different tables or passages of the source.

How the values were obtained:
PC3 cells [1] = test: Combination of AZD-7762 with ganetespib, killing of PC3 cells; format: cell-based, human
VCaP cells = test: CellTiter-Glo cell viability assay, VCaP
Procedure: (§3) The LNCaP, VCaP, 22Rv1, DU145 and PC3 human prostate cancer cell lines and HeLa cells were all purchased from the American Type Culture Collection (Manassas, Va., USA). Cells were maintained and cultured according to standard techniques at 37° C. in 5% (v/v) CO2 using culture medium recommended by the supplier. […] The Hsp90 inhibitors ganetespib and 17-AAG were synthesized at Synta Pharmaceuticals Corp. methyltrienolone (R1881) was purchased from Perkin-Elmer (Boston, Mass., USA).
(§4) Cellular viability was assessed using the CellTiter-Glo Luminescent Cell Viability Assay (Promega, Madison, Wis., USA) according to the manufacturer's protocol. Twenty-four hours after plating at 5×10^3 cells/well in triplicate in 96-well plates, cells were dosed with graded concentrations of ganetespib or 17-AAG for 72 h. CellTiter-Glo was added (50% v/v) to the cells, and the plates incubated for 10 min prior to luminescent detection in a SpectraMax Plus 384 microplate reader (Molecular Devices, Sunnyvale, Calif., USA). Data were normalized to percent of control and IC50 values used to determine the sensitivity of each line.

PC3 cells [2] = test: CellTiter-Glo cell viability assay, PC3; conditions: read-out: cytotoxicity IC50
Procedure: as §3, §4

LNCaP cells = test: CellTiter-Glo cell viability assay, LNCaP
Procedure: as §3, §4

[3] = tested on: DU145 cells (EGFR, STAT3, IGF-IR); test: Western blot of Hsp90 client proteins, DU145; format: cell-based, human; conditions: for exposure required for significant reductions in p-EGFR expression: DU145
Text: (§1) Prostate cancer cell lines were lysed in RIPA buffer (Cell Signaling Technology, Beverly, Mass. USA) and HeLa lysed by four rounds of freeze/thawing using 1× Reporter Lysis Buffer (Promega, Madison, Wis., USA) containing 0.4 M NaCl. Lysates were clarified by centrifugation and equal amounts of protein resolved by SDSPAGE before transfer to nitrocellulose membranes. Membranes were blocked with 5% skim milk in TBS with 0.5% Tween and immunoblotted with indicated antibodies. Antigen-antibody complexes were visualized using an Odyssey system (LI-COR, Lincoln, Nebr., USA).

22Rv1 cells = test: CellTiter-Glo cell viability assay, 22Rv1; conditions: read-out: cytotoxicity IC50, 22Rv1, 72 h
Procedure: as §3, §4

DU145 cells [4] = test: Annexin V apoptosis assay by flow cytometry; format: cell-based, human; conditions: DU145, 24 h, escalating doses
Procedure: (§2) For cell cycle analysis, PC3 and DU145 cells were seeded overnight at 0.3×10^6 cells/5 mL in a 6-well plate and then exposed to increasing concentrations of ganetespib (0-500 nM) for 24 h. Cells were harvested and stained with propidium iodide using the BD Cycle TEST PLUS Reagent Kit (BD Biosciences, San Jose, Calif., USA) according to the manufacturer's instructions. Twenty thousand cells were analyzed for their DNA content using a FACS Caliber cytometer (BD Biosciences, Billerica, Mass., USA). For the apoptosis assay in the DU145 cell line, cells were treated with ganetespib (10, 100 or 500 nM), 17-AAG (500 or 1000 nM) or control (DMSO) for 24 h. Following treatment cells were harvested and stained using a fluorescein-conjugated anti-Annexin V antibody (BD Biosciences) and apoptosis assessed by flow cytometry.

DU145 cells [5] = test: CellTiter-Glo cell viability assay, DU145; conditions: read-out: cytotoxicity IC50
Procedure: as §3, §4

[6] = tested on: AR-specific transcriptional activity in LNCaP cells; test: Quantitative RT-PCR of AR-directed genes PSA and TMPRSS2; format: cell-based, human; conditions: 250 nM ganetespib or 1 μM geldanamycin, 24 h, 10 nM R1881
Procedure: LNCaP cells were cultured in charcoal-stripped medium for 24 h and then treated with 250 nM ganetespib, 1 μM geldanamycin, or vehicle for 24 h in the absence or presence of 10 nM methyltrienolone (R1881). RNA was prepared from the LNCaP cells post-treatment using TRIzol reagent (Invitrogen, Grand Island, N.Y., USA). Previously reported prostate specific antigen (PSA), transmembrane protease, serine 2 (TMPRSS2), and 18S primer sets were used for target gene expression and were analyzed using SYBR green PCR Master mix in an ABI 7500 Fast sequence detection system. See, e.g., Agoulnik et al (2006), Androgens modulate expression of transcription intermediary factor 2, an androgen receptor coactivator whose expression level correlates with early biochemical recurrence in prostate cancer. Cancer Res 66 10594-10602. PSA and TMPRSS2 mRNA levels were normalized to 18S mRNA values.

constitutive V7 activity = test: GRE-luciferase reporter assay in HeLa, V7 variant; format: cell-based
Text: HeLa cells were transiently transfected using a poly-L-lysine coupled adenoviral-mediated DNA transfer technique as previously described. See, e.g., Nazareth et al (1996), Activation of the human androgen receptor through a protein kinase A signaling pathway. J Biol Chem 271 19900-19907. The plasmid constructs used were pCR3.1-AR (encoding for full length AR) and pCR3.1-V7 (encoding for the V7 truncated AR isoform and which was a gift from Manjula Nakka and William Krause, Baylor College of Medicine). For the expression study, HeLa cells were transfected with 3 ng of pCR3.1-AR or 0.5 ng of pCR3.1-V7 for 24 h. Cells were treated with R1881 (10 nM), GA (1 μM), and/or STA9090 (250 nM) or vehicle (ethanol and DMSO) for 24 hours prior to lysis and immunoblotting. To determine the effect of Hsp90 inhibitors on AR and variant activity, HeLa cells were transiently transfected with 250 ng of GRE-luciferase reporter, 30 ng of pCR3.1 β-galactosidase, 3 ng of pCR3.1-AR, or 0.03 ng of pCR3.1-V7 and treated as above. Luciferase and β-galactosidase activities were measured and luciferase levels normalized to β-galactosidase levels as described previously. See, e.g., Agoulnik et al (2003), Repressors of androgen and progesterone receptor action. J Biol Chem 278 31136-31148.

PC3 cells [7] = test: Cell cycle analysis by flow cytometry, PC3; format: cell-based, human; conditions: PC3, 0-500 nM, 24 h
Procedure: as §2

DU145 cells [8] = test: Cell cycle analysis by flow cytometry, DU145; format: cell-based, human; conditions: DU145, 0-500 nM, 24 h
Procedure: as §2

V7 truncated AR isoform = test: Expression of transfected V7 truncated AR in HeLa, immunoblot; format: cell-based; conditions: 24 h, 1 mM GA or 250 nM ganetespib
Text: (§5) HeLa cells were transiently transfected using a poly-L-lysine coupled adenoviral-mediated DNA transfer technique as previously described. […] The plasmid constructs used were pCR3.1-AR (encoding for full length AR) and pCR3.1-V7 (encoding for the V7 truncated AR isoform and which was a gift from Manjula Nakka and William Krause, Baylor College of Medicine).

[9] = tested on: LNCaP cells (AR, p-AKT/AKT, CDK1); test: Western blot of Hsp90 client proteins, LNCaP; format: cell-based, human
Text: as §1

PC3 cells (IGF-1R) = test: Western blot of Hsp90 client proteins, PC3; format: cell-based, human
Text: as §1

[10] = weekly dosing regimen; cited from earlier work
PC3 tumor xenografts = test: In vivo prostate xenograft model; conditions: for % T/C: PC3 xenografts in nude mice, i.v.
Procedure: Eight-week-old female immunodeficient nude mice (Charles River Laboratories, Wilmington, Mass.) were maintained in a pathogen-free environment, and all in vivo procedures were approved by the Synta Pharmaceuticals Corp. Institutional Animal Care and Use Committee. PC3 tumor cells were subcutaneously implanted into nude mice. […] Tumor volumes (V) were calculated by caliper measurements of the width (W), length (L), and thickness (T) of each tumor using the formula: V=0.5236(LWT). Tumor growth inhibition was determined as described previously.

[11] = tested on: 22Rv1 cells (full-length AR, p-AKT/AKT, PARP); test: Western blot, 22Rv1; format: cell-based, human; conditions: 22Rv1, 24 h
Text: as §1

[12] = tested on: DU-145 prostate carcinoma cells; test: alamarBlue cell viability assay, single agents and docetaxel combination; conditions: DU-145 cells, 72 hr
full-length AR activity = test: GRE-luciferase reporter assay in HeLa, full-length AR; format: cell-based
Procedure: HeLa cells were transiently transfected using a poly-L-lysine coupled adenoviral-mediated DNA transfer technique as previously described. […] The plasmid constructs used were pCR3.1-AR (encoding for full length AR) and pCR3.1-V7 (encoding for the V7 truncated AR isoform and which was a gift from Manjula Nakka and William Krause, Baylor College of Medicine). […] To determine the effect of Hsp90 inhibitors on AR and variant activity, HeLa cells were transiently transfected with 250 ng of GRE-luciferase reporter, 30 ng of pCR3.1 β-galactosidase, 3 ng of pCR3.1-AR, or 0.03 ng of pCR3.1-V7 and treated as above. Luciferase and β-galactosidase activities were measured and luciferase levels normalized to β-galactosidase levels as described previously.

[13] = tested on: PCa cell lines (LNCaP, 22Rv1, PC-3, DU-145); test: Summary of potency in PCa cell line panel versus 17-AAG; format: cell-based, human
Procedure: as §4

full length AR = test: Expression of transfected full length AR in HeLa, immunoblot; format: cell-based; conditions: 24 h, GA or 250 nM ganetespib, 10 nM R1881
Text: as §5

[14] = read-out: cytotoxicity IC50, 72 h
[15] = Homo sapiens, 72 h, read-out: cytotoxicity IC50

With `NC(=O)Nc1cc(-c2cccc(F)c2)sc1C(=O)N[C@H]1CCCNC1` [AZD-7762] as the compound, how does the “combination effect with ganetespib in killing cells” value (PC3 cells [1]) read?
Its value is “in synergy with ganetespib”.

For `C=CCNC1=C2C[C@@H](C)C[C@H](OC)[C@H](O)[C@@H](C)/C=C(\C)[C@H](OC(N)=O)[C@@H](OC)/C=C\C=C(/C)C(=O)NC(=CC1=O)C2=O` [Compound 17-AAG, 17-AAG, reference compound], which IC50 (VCaP cells; [14]) is on record?
Its IC50 is 2640 nM.

What about the IC50 (PC3 cells [2]; PC3, 72 h) of the same compound?
The IC50 was 246 nM.

And the IC50 (LNCaP cells; [14])?
Its IC50 is 265 nM.

And the “exposure required for significant reductions in p-EGFR expression” value [3]?
The value was 18 h.

And the IC50 (22Rv1 cells)?
The IC50 was 1270 nM.

What about the “apoptotic cells, Annexin V staining” value (DU145 cells [4]) of the same compound?
Its value is “comparable proportion of apoptotic cells”.

And the IC50 (DU145 cells [5]; DU145, 72 h)?
Its IC50 is 36 nM.

For `CC(C)c1cc(-c2nnc(O)n2-c2ccc3c(ccn3C)c2)c(O)cc1O` [Ganetespib, 3-(2,4-dihydroxy-5-isopropyl-phenyl)-4-(1-methyl-indol-5-yl)-5-hydroxy-[1,2,4] triazole], which IC50 (VCaP cells; [15]) is on record?
The IC50 was 7 nM.

What about the IC50 (PC3 cells [2]; Homo sapiens, PC-3, 72 h) of the same compound?
Its IC50 is 77 nM.

What about the IC50 (LNCaP cells; [15]) of the same compound?
Its IC50 is 8 nM.

What about the “R1881 induction of PSA and TMPRSS2 mRNA” value [6] of the same compound?
The value was “significantly inhibited”.

What about the “constitutive V7 activity, luciferase assay” value (constitutive V7 activity) of the same compound?
Its value is “less effective”.

And the cell cycle distribution (PC3 cells [7])?
The cell cycle distribution was “dose-dependent accumulation of cells in the G2/M phase”.

What about the cell cycle distribution (DU145 cells [8]) of the same compound?
Its cell cycle distribution is “dose-dependent accumulation of cells in the G2/M phase”.

And the “expression of the variant (V7) receptor” value (V7 truncated AR isoform)?
Its value is “neither inhibitor significantly altered expression”.

And the “time of destabilization of p-AKT/AKT” value ([9]; 100 nM)?
The value was 18 h.

And the “time of loss of total and phosphorylated CDK1” value ([9]; 100 nM)?
The value was no more than 24 h.

And the “time to measurable reduction in AR expression” value ([9]; 100 nM)?
The value was no more than 3 h.

What about the AR levels ([9]; 24 h, Western blot) of the same compound?
The AR levels was “potent and dose-dependent decrease”.

What about the “time by which IGF-1R levels were reduced” value (PC3 cells (IGF-1R)) of the same compound?
Its value is no more than 6 h.

And the “highest non-severely toxic dose (HNSTD)” value [10]?
The value was 150 mg/kg.

What about the “exposure required for significant reductions in p-EGFR expression” value [3] of the same compound?
The value was 18 h.

What about the STAT3 signaling ([3]; DU145, 24 h, Western blot) of the same compound?
The STAT3 signaling was “completely abrogated”.

What about the “tolerability of the regimen” value (PC3 tumor xenografts; 150 mg/kg weekly, nude mice) of the same compound?
The value was “well tolerated”.

What about the “% T/C” value (PC3 tumor xenografts; once a week at 150 mg/kg for 4 weeks) of the same compound?
Its value is 17%.

And the “% T/C” value (PC3 tumor xenografts; twice a week at 50 mg/kg for 4 weeks)?
The value was 3%.

What about the “dose sufficient to induce degradation of full-length AR, destabilization of p-AKT/AKT and apoptosis (cleaved PARP)” value [11] of the same compound?
Its value is no more than 25 nM.

What about the IC50 [12] of the same compound?
Its IC50 is 14 nM.

What about the IC50 (22Rv1 cells; Homo sapiens) of the same compound?
Its IC50 is 2 nM.

What about the “full-length AR activity, luciferase assay” value (full-length AR activity) of the same compound?
The value was “strongly inhibited”.

And the “apoptotic cells, Annexin V staining” value (DU145 cells [4])?
Its value is “dose-dependent increase in apoptotic cells”.

What about the IC50 (DU145 cells [5]; Homo sapiens, DU-145, 72 h) of the same compound?
Its IC50 is 12 nM.

What about the “IC50 fold less than 17-AAG” value [13] of the same compound?
Its value is 3-7 fold.

What about the “androgen-increased full-length AR expression” value (full length AR) of the same compound?
The value was “completely abrogated”.

With `CC(=O)O[C@@]12CO[C@@H]1C[C@H](O)[C@@]1(C)C(=O)[C@H](O)C3=C(C)[C@@H](OC(=O)[C@H](O)[C@@H](NC(=O)OC(C)(C)C)c4ccccc4)C[C@@](O)([C@@H](OC(=O)c4ccccc4)[C@H]21)C3(C)C` [docetaxel, reference compound] as the compound, how does the IC50 [12] read?
The IC50 was 1 nM.
